Legend:
[1] = test system: recombinant NL4-3 virus (Renilla luciferase in nef); assay: HIV cell culture assay (antiviral activity, luciferase readout in MT-2 cells); type: cell-based; conditions: Renilla, NL43
Description: HIV cell culture assay—MT=2 cells, 293T cells and the proviral DNA clone of NL4-3 virus were obtained from the NIH AIDS Research and Reference Reagent Program. MT=2 cells were propagated in RPMI 1640 media supplemented with 10% heat inactivated fetal bovine serum (FBS), […] penicillin G and up to 100 units/mL streptomycin. The 293T cells were propagated in DMEM media supplemented with 10% heat inactivated FBS, […] penicillin G and […] streptomycin. A recombinant NL4-3 proviral clone, in which a section of the nef gene was replaced with the Renilla luciferase gene, was used to make the reference virus used in these studies. The recombinant virus was prepared through transfection of the recombinant NL4-3 proviral clone into 293T cells using Transit-293 Transfection Reagent from Mirus Bio LLC (Madison, Wis.). Supernatent was harvested after 2-3 days and the amount of virus present was titered in MT=2 cells using luciferase enzyme activity as a marker by measuring luciferase enzyme activity. Luciferase was quantitated using the EnduRen Live Cell Substrate from Promega (Madison, Wis.). Antiviral activities of compounds toward the recombinant virus were quantified by measuring luciferase activity in MT=2 cells infected for 4-5 days with the recombinant virus in the presence of serial dilutions of the compound.
The 50% effective concentration (EC50) was calculated by using the exponential form of the median effect equation where (Fa)=1/[1+(ED50/drug conc.)m] (Johnson V A, Byington R T. Infectivity Assay. In Techniques in HIV Research. ed. Aldovini A, Walker B D. 71-76. New York: Stockton Press. 1990). The 50% inhibitory concentration (EC50) was calculated by using the exponential form of the median effect equation where percent inhibition=1/[1+(EC50/drug concentration)m], where m is a parameter that reflects the slope of the concentration-response curve.

[2] = Compound cytotoxicity, XTT-based colorimetric assay; type: cell-based; conditions: human; uninfected MT2 cells, day 4, XTT
Description: Compound cytotoxicity and the corresponding CC50 values were determined using the same protocol as described in the antiviral assay except that uninfected cells were used. Cytotoxicity was assessed on day 4 in uninfected MT2 cells by using an XTT (2,3-bis[2-Methoxy-4-nitro-5-sulfophenyl]-2H-tetrazolium-5-carboxyanilide inner salt)-based colorimetric assay (Sigma-Aldrich, St Louis, Mo.).

Q: Which EC50 [1] does the source give for `Cn1nc(NS(C)(=O)=O)c2c(Cl)ccc(-n3c([C@H](Cc4cc(F)cc(F)c4)NC(=O)Cn4nc(C(F)F)c5c4C(F)(F)[C@@H]4C[C@H]54)nc4cc(-c5csc(C(F)(F)F)n5)ccc4c3=O)c21` (atropisomer, axis not shown; (P)) [Example 1, N—((S)-1-((3P)-3-(4-chloro-1-methyl-3-(methylsulfonamido)-1H-indazol-7-yl)-4-oxo-7-(2-(trifluoromethyl)thiazol-4-yl)-3,4-dihydroquinazolin-2-yl)-2-(3,5-difluorophenyl)ethyl)-2-((3bS,4aR)-3-(difluoromethyl)-5,5-difluoro-3b,4,4a,5-tetrahydro-1H-cyclopropa[3,4]cyclopenta[1,2-c]pyrazol-1-yl)acetamide] here?
A: The EC50 was 0.091 nM.

Q: What about the CC50 at 4 days [2] of the same compound?
A: Its CC50 at 4 days is > 100 nM.

Q: For `COc1nccc(-c2ccc3c(=O)n(-c4ccc(Cl)c5c(NS(C)(=O)=O)nn(C)c45)c([C@H](Cc4cc(F)cc(F)c4)NC(=O)Cn4nc(C(F)F)c5c4C(F)(F)[C@@H]4C[C@H]54)nc3c2)n1` (atropisomer, axis not shown; (P)) [Example 5, N—((S)-1-((3P)-3-(4-chloro-1-methyl-3-(methylsulfonamido)-1H-indazol-7-yl)-7-(2-methoxypyrimidin-4-yl)-4-oxo-3,4-dihydroquinazolin-2-yl)-2-(3,5-difluorophenyl)ethyl)-2-((3bS,4aR)-3-(difluoromethyl)-5,5-difluoro-3b,4,4a,5-tetrahydro-1H-cyclopropa[3,4]cyclopenta[1,2-c]pyrazol-1-yl)acetamide], which EC50 [1] is on record?
A: Its EC50 is 0.083 nM.

Q: What about the CC50 at 4 days [2] of the same compound?
A: Its CC50 at 4 days is > 500 nM.

Q: Which EC50 [1] does the source give for `Cn1nc(NS(C)(=O)=O)c2c(Cl)ccc(-n3c([C@H](Cc4cc(F)cc(F)c4)NC(=O)Cn4nc(C(F)F)c5c4C(F)(F)[C@@H]4C[C@H]54)nc4cc(-c5ccc(F)nc5F)ccc4c3=O)c21` (atropisomer, axis not shown; (P)) [Example 6, N—((S)-1-((3P)-3-(4-chloro-1-methyl-3-(methylsulfonamido)-1H-indazol-7-yl)-7-(2,6-difluoropyridin-3-yl)-4-oxo-3,4-dihydroquinazolin-2-yl)-2-(3,5-difluorophenyl)ethyl)-2-((3bS,4aR)-3-(difluoromethyl)-5,5-difluoro-3b,4,4a,5-tetrahydro-1H-cyclopropa[3,4]cyclopenta[1,2-c]pyrazol-1-yl)acetamide] here?
A: Its EC50 is 0.047 nM.

Q: Which EC50 [1] does the source give for `Cn1nc(NS(C)(=O)=O)c2c(Cl)ccc(-n3c([C@H](Cc4cc(F)cc(F)c4)NC(=O)Cn4nc(C(F)F)c5c4C(F)(F)[C@@H]4C[C@H]54)nc4cc(-c5ncc(F)cc5F)ccc4c3=O)c21` (atropisomer, axis not shown; (P)) [Example 7, N—((S)-1-((3P)-3-(4-chloro-1-methyl-3-(methylsulfonamido)-1H-indazol-7-yl)-7-(3,5-difluoropyridin-2-yl)-4-oxo-3,4-dihydroquinazolin-2-yl)-2-(3,5-difluorophenyl)ethyl)-2-((3bS,4aR)-3-(difluoromethyl)-5,5-difluoro-3b,4,4a,5-tetrahydro-1H-cyclopropa[3,4]cyclopenta[1,2-c]pyrazol-1-yl)acetamide] here?
A: Its EC50 is 0.17 nM.

Q: And the CC50 at 4 days [2]?
A: Its CC50 at 4 days is > 500 nM.

Q: With `Cn1nc(NS(C)(=O)=O)c2c(Cl)ccc(-n3c([C@H](Cc4cc(F)cc(F)c4)NC(=O)Cn4nc(C(F)F)c5c4C(F)(F)[C@@H]4C[C@H]54)nc4cc(-c5ncc(F)cc5Cl)ccc4c3=O)c21` (atropisomer, axis not shown; (P)) [Example 10, N—((S)-1-((3P)-3-(4-chloro-1-methyl-3-(methylsulfonamido)-1H-indazol-7-yl)-7-(3-chloro-5-fluoropyridin-2-yl)-4-oxo-3,4-dihydroquinazolin-2-yl)-2-(3,5-difluorophenyl)ethyl)-2-((3bS,4aR)-3-(difluoromethyl)-5,5-difluoro-3b,4,4a,5-tetrahydro-1H-cyclopropa[3,4]cyclopenta[1,2-c]pyrazol-1-yl)acetamide] as the compound, how does the EC50 [1] read?
A: Its EC50 is 0.11 nM.

From patent US20230013823A1, “INHIBITORS OF HUMAN IMMUNODEFICIENCY VIRUS REPLICATION” (VIV HEALTHCARE UK (No. 5) LIMITED, priority 2019, published 2023)
